{"source": "PubChem BioAssay AID2060883", "about": "(Molecular Pharmacology Branch, DTP, NCI, 2025)", "tested_on": "843782-103-R-J1-PDC complex spheroid viability", "experiment": "Anticancer human tumor 843782-103-R-J1-PDC patient-derived lung adenocarcinoma cell line growth inhibition [RAS]", "conditions": "for IC50: curve of first compound; for viability, T/C: stronger effect = lower value", "how_it_was_run": "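Agents were tested in combination matrices in half-log decrements from a top concentration at or near clinical Cmax (10 microM if undetermined). Targets were multi-cell spheroids of tumour lines plus HUVEC and MSC stromal cells.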", "data": [{"molecule": "CC(C)n1nc(-c2ccc3oc(N)nc3c2)c2c(N)ncnc21", "note": "+ C#Cc1c(F)ccc2cc(O)cc(-c3ncc4c(N5CC6CCC(C5)N6)nc(OCC56CCCN5CC(F)C6)nc4c3F)c12;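 also: viability read after seven days of compound exposure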", "values": [{"measurement": "IC50", "setting": "second compound 0.0316 µM", "value": 38.3, "unit": "nM"}, {"measurement": "IC50", "setting": "second compound 0.1 µM", "value": 24.4, "unit": "nM"}, {"measurement": "IC50", "setting": "second compound 0.316 µM", "value": 20.8, "unit": "nM"}, {"measurement": "IC50", "setting": "second compound 1 µM", "value": 18.9, "unit": "nM"}, {"measurement": "IC50", "setting": "second compound 3.16 µM", "value": 6.61, "unit": "nM"}, {"measurement": "IC50", "setting": "second compound 10 µM", "value": 0.794, "unit": "nM"}, {"measurement": "viability, T/C", "setting": "second compound 0.0316 µM, first compound 0.000316 µM", "value": 108, "unit": "%"}, {"measurement": "viability, T/C", "setting": "second compound 0.0316 µM, first compound 0.001 µM", "value": 93.9, "unit": "%"}, {"measurement": "viability, T/C", "setting": "second compound 0.0316 µM, first compound 0.00316 µM", "value": 97.5, "unit": "%"}, {"measurement": "viability, T/C", "setting": "second compound 0.0316 µM, first compound 0.01 µM", "value": 70.8, "unit": "%"}, {"measurement": "viability, T/C", "setting": "second compound 0.0316 µM, first compound 0.0316 µM", "value": 55.1, "unit": "%"}, {"measurement": "viability, T/C", "setting": "second compound 0.0316 µM, first compound 0.1 µM", "value": 31.2, "unit": "%"}, {"measurement": "viability, T/C", "setting": "second compound 0.1 µM, first compound 0.000316 µM", "value": 105, "unit": "%"}, {"measurement": "viability, T/C", "setting": "second compound 0.1 µM, first compound 0.001 µM", "value": 95.7, "unit": "%"}, {"measurement": "viability, T/C", "setting": "second compound 0.1 µM, first compound 0.00316 µM", "value": 93.8, "unit": "%"}, {"measurement": "viability, T/C", "setting": "second compound 0.1 µM, first compound 0.01 µM", "value": 72.5, "unit": "%"}, {"measurement": "viability, T/C", "setting": "second compound 0.1 µM, first compound 0.0316 µM", "value": 42.8, "unit": "%"}, {"measurement": "viability, T/C", "setting": "second compound 0.1 µM, first compound 0.1 µM", "value": 29.8, "unit": "%"}, {"measurement": "viability, T/C", "setting": "second compound 0.316 µM, first compound 0.000316 µM", "value": 101, "unit": "%"}, {"measurement": "viability, T/C", "setting": "second compound 0.316 µM, first compound 0.001 µM", "value": 91.2, "unit": "%"}, {"measurement": "viability, T/C", "setting": "second compound 0.316 µM, first compound 0.00316 µM", "value": 91.2, "unit": "%"}, {"measurement": "viability, T/C", "setting": "second compound 0.316 µM, first compound 0.01 µM", "value": 66.3, "unit": "%"}, {"measurement": "viability, T/C", "setting": "second compound 0.316 µM, first compound 0.0316 µM", "value": 40.6, "unit": "%"}, {"measurement": "viability, T/C", "setting": "second compound 0.316 µM, first compound 0.1 µM", "value": 26, "unit": "%"}, {"measurement": "viability, T/C", "setting": "second compound 1 µM, first compound 0.000316 µM", "value": 99.7, "unit": "%"}, {"measurement": "viability, T/C", "setting": "second compound 1 µM, first compound 0.001 µM", "value": 87.8, "unit": "%"}, {"measurement": "viability, T/C", "setting": "second compound 1 µM, first compound 0.00316 µM", "value": 81.7, "unit": "%"}, {"measurement": "viability, T/C", "setting": "second compound 1 µM, first compound 0.01 µM", "value": 62.1, "unit": "%"}, {"measurement": "viability, T/C", "setting": "second compound 1 µM, first compound 0.0316 µM", "value": 39.6, "unit": "%"}, {"measurement": "viability, T/C", "setting": "second compound 1 µM, first compound 0.1 µM", "value": 21.8, "unit": "%"}, {"measurement": "viability, T/C", "setting": "second compound 3.16 µM, first compound 0.000316 µM", "value": 93, "unit": "%"}, {"measurement": "viability, T/C", "setting": "second compound 3.16 µM, first compound 0.001 µM", "value": 70, "unit": "%"}, {"measurement": "viability, T/C", "setting": "second compound 3.16 µM, first compound 0.00316 µM", "value": 71.8, "unit": "%"}, {"measurement": "viability, T/C", "setting": "second compound 3.16 µM, first compound 0.01 µM", "value": 39.1, "unit": "%"}, {"measurement": "viability, T/C", "setting": "second compound 3.16 µM, first compound 0.0316 µM", "value": 25.3, "unit": "%"}, {"measurement": "viability, T/C", "setting": "second compound 3.16 µM, first compound 0.1 µM", "value": 19.4, "unit": "%"}, {"measurement": "viability, T/C", "setting": "second compound 10 µM, first compound 0.000316 µM", "value": 63.3, "unit": "%"}, {"measurement": "viability, T/C", "setting": "second compound 10 µM, first compound 0.001 µM", "value": 41, "unit": "%"}, {"measurement": "viability, T/C", "setting": "second compound 10 µM, first compound 0.00316 µM", "value": 38.5, "unit": "%"}, {"measurement": "viability, T/C", "setting": "second compound 10 µM, first compound 0.01 µM", "value": 28, "unit": "%"}, {"measurement": "viability, T/C", "setting": "second compound 10 µM, first compound 0.0316 µM", "value": 18.8, "unit": "%"}, {"measurement": "viability, T/C", "setting": "second compound 10 µM, first compound 0.1 µM", "value": 10.6, "unit": "%"}]}]}
